Laboratory results reported in US6710049B2, “Azole compounds as anti-fungal agents” (Ranbaxy Laboratories Limited, priority 2000, dated 2004).
Converted amounts (≈) assume the structure as drawn.

Columns and labels:
[1] = system: C neoformans M-106; assay: MIC determination (NCCLS broth method); assay type: cell-based, Cryptococcus neoformans
Text: (§1) The in-vitro evaluation of the antifungal activity of the compounds can be performed by determining the minimum inhibitory concentration (MIC) as shown in Table 1 which is the concentration of the test compound in Rosewell Park Memorial Institute (RPMI) 1640 liquid medium buffered with 3-(Morpholino)propanesulphonic acid (MOPS) to pH 7, at which there is significant inhibition of the particular fungi. In practice the National Committee for Clinical Laboratory Standard (NCCLS) M27A document for Candida and Cryptococcus and M38P for Aspergillus was used to determine the MIC against yeast and filamentous fungi with suitable modifications for dermatophytes to other filamentous fungi. Three quality control strains were included each time the MIC were determined and readings recorded only when the Quality Control results fell into the acceptable range. After MIC results had been recorded, 100 μl from each of the well showing no growth was spread over Sabouraud Dextrose Agar (SDA) to determine the minimum fungicidal concentration (MFC) as shown in Table 2.

[2] = system: C neoformans I; assay: MIC determination (NCCLS broth method); assay type: cell-based, Cryptococcus neoformans
Text: as §1

[3] = system: Alternaria 1051; assay: MFC determination (subculture on Sabouraud Dextrose Agar); assay type: cell-based
Text: as §1

[4] = system: Penicillium H - 1048; assay: as above; assay type: cell-based
Text: as §1

[5] = system: A flavus P2 - 1045; assay: as above; assay type: cell-based
Text: as §1

[6] = system: A flavus E3 - 1044; assay: as above; assay type: cell-based
Text: as §1

[7] = system: Penicillium 191; assay: as above; assay type: cell-based
Text: as §1

[8] = system: Penicillium 31620; assay: as above; assay type: cell-based
Text: as §1

[9] = system: Penicillium 1641; assay: as above; assay type: cell-based
Text: as §1

[10] = system: C parapsilosis 22019; assay: as above; assay type: cell-based
Text: as §1

[11] = system: Penicillium I - 1049; assay: as above; assay type: cell-based
Text: as §1

[12] = system: A niger E5 - 1047; assay: as above; assay type: cell-based
Text: as §1

[13] = system: Rhizopus 1052; assay: as above; assay type: cell-based
Text: as §1

[14] = system: A flavus P3 - 1041; assay: as above; assay type: cell-based
Text: as §1

[15] = system: Penicillium 2306; assay: as above; assay type: cell-based
Text: as §1

[16] = system: Rhizopus (Ceylon); assay: as above; assay type: cell-based
Text: as §1

[17] = system: Penicillium 2548; assay: as above; assay type: cell-based
Text: as §1

[18] = system: A niger P1 - 1046; assay: as above; assay type: cell-based
Text: as §1

[19] = system: A flavus E4 - 1042; assay: as above; assay type: cell-based
Text: as §1

[20] = system: C krusei 6258; assay: as above; assay type: cell-based
Text: as §1

[21] = system: Mucor (Ceylon); assay: as above; assay type: cell-based
Text: as §1

[22] = system: A fumigatus 1008; assay: as above; assay type: cell-based, Aspergillus fumigatus
Text: as §1

[23] = system: A fumigatus SI-1 - 1019; assay: as above; assay type: cell-based, Aspergillus fumigatus
Text: as §1

[24] = system: Aspergillus fumigatus isolates; assay: Comparative in vitro MIC, isolate panel; assay type: cell-based
Text: as §1
(§2) A comparative in vitro and in vivo biologically activity data of the compound of our invention, 2-{[1R,2R]-2-(2,4-Difluorophenyl)-2-hydroxy-1-methyl-3-(1H-1,2,4-triazole-1-yl)propyl}-4-[(2′,2′,3′,3′-tetrafluoropropoxyphenyl)-3-(2H,4H)-1,2,4-thiotriazolone (Compound No. 3) with 2-[(1R,2R)-2-(2,4-difluorophenyl)-2-hydroxy-1-methyl-3-(1H-1,2,4-triazol-1-yl)propyl]-4-(2′,2′,3′,3′-tetraflouropropoxyphenyl)-3(2H,4H)-1,2,4-triazolone (TAK 187) and standard antifungal pharmaceuticals is given below: […]

[25] = system: All Filamentous isolates; assay: Comparative in vitro MIC, isolate panel; assay type: cell-based
Text: as §1, §2

[26] = system: Penicillium spp. isolates; assay: Comparative in vitro MIC, isolate panel; assay type: cell-based
Text: as §1, §2

[27] = system: All fungal pathogens; assay: Comparative in vitro MIC, isolate panel; assay type: cell-based
Text: as §1, §2

[28] = system: Fusarium spp. isolates; assay: Comparative in vitro MIC, isolate panel; assay type: cell-based
Text: as §1, §2

[29] = system: All Candida isolates; assay: Comparative in vitro MIC, isolate panel; assay type: cell-based
Text: as §1, §2

[30] = system: Rhizoupus spp. isolates; assay: Comparative in vitro MIC, isolate panel; assay type: cell-based
Text: as §1, §2

[31] = system: P variotii 22319; assay: MFC determination (subculture on Sabouraud Dextrose Agar); assay type: cell-based, Paecillomyces variotii
Text: as §1

[32] = system: P variotii 22319; assay: MIC determination (NCCLS broth method); assay type: cell-based, Paecillomyces variotii
Text: as §1

[33] = system: C glabrata 90030; assay: MIC determination (NCCLS broth method); assay type: cell-based
Text: as §1

[34] = system: A flavus E3 - 1044; assay: MIC determination (NCCLS broth method); assay type: cell-based
Text: as §1

[35] = system: A flavus P3 - 1041; assay: MIC determination (NCCLS broth method); assay type: cell-based
Text: as §1

[36] = system: Mucor (Ceylon); assay: MIC determination (NCCLS broth method); assay type: cell-based
Text: as §1

[37] = system: Fusarium 18270; assay: MFC determination (subculture on Sabouraud Dextrose Agar); assay type: cell-based; conditions: Fusarium 18270
Text: as §1

`C[C@@H]1[C@H](O)[C@@H](C)/C=C/C=C/C=C/C=C/C=C/C=C/C=C/[C@H](O[C@@H]2O[C@H](C)[C@@H](O)[C@H](N)[C@@H]2O)C[C@@H]2O[C@](O)(C[C@@H](O)C[C@@H](O)[C@H](O)CC[C@@H](O)C[C@@H](O)CC(=O)O[C@H]1C)C[C@H](O)[C@H]2C(=O)O` [Amphotericin-B, Amphotericin B] was tested, and the “Minimum Inhibitory Concentration (MIC)” value [1] was 0.03 µg/mL, the “Minimum Inhibitory Concentration (MIC)” value [2] was 0.06 µg/mL and the “Minimum Fungicidal Concentration (MFC)” value [3] was >128 µg/mL. For the same compound, the “Minimum Fungicidal Concentration (MFC)” value [4] was 2 µg/mL, the “Minimum Fungicidal Concentration (MFC)” value [5] was 1 µg/mL and the “Minimum Fungicidal Concentration (MFC)” value [6] was 0.5 µg/mL. For the same compound, the “Minimum Fungicidal Concentration (MFC)” value [7] was 2 µg/mL, the “Minimum Fungicidal Concentration (MFC)” value [8] was 0.25 µg/mL and the “Minimum Fungicidal Concentration (MFC)” value [9] was 16 µg/mL. For the same compound, the “Minimum Fungicidal Concentration (MFC)” value [10] was 32 µg/mL, the “Minimum Fungicidal Concentration (MFC)” value [11] was 4 µg/mL and the “Minimum Fungicidal Concentration (MFC)” value [12] was 0.25 µg/mL. The “Minimum Fungicidal Concentration (MFC)” value [13] was 8 µg/mL, the “Minimum Fungicidal Concentration (MFC)” value [14] was 0.5 µg/mL and the “Minimum Fungicidal Concentration (MFC)” value [15] was 0.5 µg/mL. The “Minimum Fungicidal Concentration (MFC)” value [16] was 64 µg/mL, the “Minimum Fungicidal Concentration (MFC)” value [17] was 4 µg/mL and the “Minimum Fungicidal Concentration (MFC)” value [18] was 0.25 µg/mL. The “Minimum Fungicidal Concentration (MFC)” value [19] was 0.125 µg/mL, the “Minimum Fungicidal Concentration (MFC)” value [20] was 1 µg/mL and the “Minimum Fungicidal Concentration (MFC)” value [21] was 1 µg/mL. The “Minimum Fungicidal Concentration (MFC)” value [22] was 1 µg/mL, the “Minimum Fungicidal Concentration (MFC)” value [23] was 2 µg/mL and the MIC50 [24] was 0.25 µg/mL (≈ 0.271 µM). For the same compound, the MIC90 [24] was 0.5 µg/mL (≈ 0.541 µM), the “MIC G.M.” value [24] was 0.27 µg/mL (≈ 0.292 µM) and the MIC50 [25] was 0.25 µg/mL (≈ 0.271 µM). The MIC90 [25] was 0.5 µg/mL (≈ 0.541 µM), the “MIC G.M.” value [25] was 0.22 µg/mL (≈ 0.238 µM) and the MIC50 [26] was 0.25 µg/mL (≈ 0.271 µM). For the same compound, the MIC90 [26] was 0.25 µg/mL (≈ 0.271 µM), the “MIC G.M.” value [26] was 0.144 µg/mL (≈ 0.156 µM) and the MIC50 [27] was 0.25 µg/mL (≈ 0.271 µM). For the same compound, the MIC90 [27] was 0.5 µg/mL (≈ 0.541 µM), the “MIC G.M.” value [27] was 0.21 µg/mL (≈ 0.227 µM) and the MIC50 [28] was 0.5 µg/mL (≈ 0.541 µM). The MIC90 [28] was 2 µg/mL (≈ 2.16 µM), the “MIC G.M.” value [28] was 0.841 µg/mL (≈ 0.91 µM) and the MIC50 [29] was 0.25 µg/mL (≈ 0.271 µM). For the same compound, the MIC90 [29] was 0.25 µg/mL (≈ 0.271 µM), the “MIC G.M.” value [29] was 0.22 µg/mL (≈ 0.238 µM) and the MIC50 [30] was 0.125 µg/mL (≈ 0.135 µM). For the same compound, the MIC90 [30] was 0.25 µg/mL (≈ 0.271 µM), the “MIC G.M.” value [30] was 0.177 µg/mL (≈ 0.192 µM) and the “Minimum Fungicidal Concentration (MFC)” value [31] was 2 µg/mL. For the same compound, the “Minimum Inhibitory Concentration (MIC)” value [32] was 0.03 µg/mL, the “Minimum Inhibitory Concentration (MIC)” value [33] was 0.25 µg/mL and the “Minimum Inhibitory Concentration (MIC)” value [34] was 1 µg/mL. For the same compound, the “Minimum Inhibitory Concentration (MIC)” value [35] was 0.5 µg/mL and the “Minimum Inhibitory Concentration (MIC)” value [36] was 0.06 µg/mL.

With `C[C@@H](n1ncn(-c2ccc(OCC(F)(F)C(F)F)cc2)c1=O)[C@](O)(Cn1cncn1)c1ccc(F)cc1F` [TAK 187, 2-[(1R,2R)-2-(2,4-difluorophenyl)-2-hydroxy-1-methyl-3-(1H-1,2,4-triazol-1-yl)propyl]-4-(2′,2′,3′,3′-tetraflouropropoxyphenyl)-3(2H,4H)-1,2,4-triazolone] the “Minimum Inhibitory Concentration (MIC)” value [1] was 0.06 µg/mL, the “Minimum Inhibitory Concentration (MIC)” value [2] was 0.03 µg/mL and the “Minimum Fungicidal Concentration (MFC)” value [37] was 32 µg/mL. For the same compound, the “Minimum Fungicidal Concentration (MFC)” value [3] was 16 µg/mL, the “Minimum Fungicidal Concentration (MFC)” value [4] was >128 µg/mL and the “Minimum Fungicidal Concentration (MFC)” value [5] was 32 µg/mL. For the same compound, the “Minimum Fungicidal Concentration (MFC)” value [6] was 8 µg/mL, the “Minimum Fungicidal Concentration (MFC)” value [7] was 16 µg/mL and the “Minimum Fungicidal Concentration (MFC)” value [8] was 16 µg/mL. For the same compound, the “Minimum Fungicidal Concentration (MFC)” value [9] was 32 µg/mL, the “Minimum Fungicidal Concentration (MFC)” value [10] was 0.03 µg/mL and the “Minimum Fungicidal Concentration (MFC)” value [11] was 128 µg/mL. For the same compound, the “Minimum Fungicidal Concentration (MFC)” value [12] was 2 µg/mL, the “Minimum Fungicidal Concentration (MFC)” value [13] was 32 µg/mL and the “Minimum Fungicidal Concentration (MFC)” value [15] was 16 µg/mL. For the same compound, the “Minimum Fungicidal Concentration (MFC)” value [16] was >128 µg/mL, the “Minimum Fungicidal Concentration (MFC)” value [17] was 16 µg/mL and the “Minimum Fungicidal Concentration (MFC)” value [18] was 0.5 µg/mL. For the same compound, the “Minimum Fungicidal Concentration (MFC)” value [20] was 64 µg/mL, the “Minimum Fungicidal Concentration (MFC)” value [21] was >128 µg/mL and the “Minimum Fungicidal Concentration (MFC)” value [22] was 8 µg/mL. For the same compound, the “Minimum Fungicidal Concentration (MFC)” value [23] was 32 µg/mL, the MIC50 [24] was 8 µg/mL (≈ 14.7 µM) and the MIC90 [24] was 8 µg/mL (≈ 14.7 µM). For the same compound, the “MIC G.M.” value [24] was 7.4 µg/mL (≈ 13.6 µM), the MIC50 [25] was 8 µg/mL (≈ 14.7 µM) and the MIC90 [25] was 32 µg/mL (≈ 59 µM). For the same compound, the “MIC G.M.” value [25] was 7.246 µg/mL (≈ 13.4 µM), the MIC50 [26] was 16 µg/mL (≈ 29.5 µM) and the MIC90 [26] was 64 µg/mL (≈ 118 µM). The “MIC G.M.” value [26] was 18.664 µg/mL (≈ 34.4 µM), the MIC50 [27] was 8 µg/mL (≈ 14.7 µM) and the MIC90 [27] was 32 µg/mL (≈ 59 µM). For the same compound, the “MIC G.M.” value [27] was 4.16 µg/mL (≈ 7.67 µM), the MIC50 [28] was 32 µg/mL (≈ 59 µM) and the MIC90 [28] was 64 µg/mL (≈ 118 µM). For the same compound, the “MIC G.M.” value [28] was 45.255 µg/mL (≈ 83.4 µM), the MIC50 [29] was 0.5 µg/mL (≈ 0.922 µM) and the MIC90 [29] was 2 µg/mL (≈ 3.69 µM). The “MIC G.M.” value [29] was 0.45 µg/mL (≈ 0.83 µM), the MIC50 [30] was 4 µg/mL (≈ 7.37 µM) and the MIC90 [30] was 4 µg/mL (≈ 7.37 µM). The “MIC G.M.” value [30] was 4 µg/mL (≈ 7.37 µM), the “Minimum Fungicidal Concentration (MFC)” value [31] was 32 µg/mL and the “Minimum Inhibitory Concentration (MIC)” value [32] was 0.25 µg/mL. The “Minimum Inhibitory Concentration (MIC)” value [33] was 0.5 µg/mL, the “Minimum Inhibitory Concentration (MIC)” value [34] was 1 µg/mL and the “Minimum Inhibitory Concentration (MIC)” value [35] was 8 µg/mL. The “Minimum Inhibitory Concentration (MIC)” value [36] was 8 µg/mL.
